# Assay results as given in patent US7737112B2, “Composition for enzyme inhibition” (Onyx Therapeutics, Inc., priority 2004, dated 2010).
# What was measured:
# Format in all cases: physicochemical
# [1] = solubility of peptide epoxy ketones in cyclodextrin formulations
# Experimental: 100 μg/mL peptide (b) was formulated in an aqueous solution containing 130 mg/mL hydroxypropyl beta cyclodextrin (HPBCD) and ca. 0.9% (w/v) NaCl.
# 2 mg/mL peptide (a) was formulated in an aqueous solution containing 10% (w/v) SBECD and 10 mM citric acid adjusted to pH 3.5 with 0.1 M aqueous sodium hydroxide.
# (§1) Appropriate masses of SBECD and citric acid were added to a volume of WFI corresponding to approximately 75% that of the final formulation. This mixture was then stirred at room temperature until complete dissolution of the SBECD and citric acid was effected. An appropriate mass of peptide (a) was then added and the resulting mixture stirred at room temperature until the added peptide (a) was dissolved. A pH electrode was then immersed in the solution and, with rapid stirring, the pH was adjusted to 3.5 by slow addition of 0.1 M sodium hydroxide in WFI; slow addition of the sodium hydroxide solution with adequate stirring was necessary to prevent precipitation of peptide (a). With rapid stirring, the resulting solution was then diluted with WFI to a final peptide (a) concentration of 2.0 mg/mL. This solution was then sterile filtered to yield the final formulation.
# Several other final pH values were used for the peptide (a)/SBECD formulations.
# [2] = room temperature stability of reconstituted peptide (b)/HPBCD drug product; details: 100 μg/mL peptide (b)/HPBCD solid reconstituted in aqueous 0.9% (w/v) NaCl, sterile filtered
# Experimental: The desired quantity of peptide (b) was weighed and dissolved in absolute ethanol at a concentration of 1 mg/mL. For each 1 mg of peptide (b) to be formulated, 1.3 g HPBCD was dissolved in absolute ethanol at a concentration of 10 mg/mL. This ethanol/HPBCD solution was then combined with the ethanol/peptide (b) solution, stirred 5 minutes at room temperature and then evaporated under reduced pressure (rotovapped) to yield a white solid. This solid was placed under high vacuum (ca. 1 mTorr) for 24 hrs, pulverized and then placed under high vacuum (ca. 1 mTorr) for another 4 hrs to yield dry solid. The final formulation was prepared by dissolving this solid drug product to a final concentration of 100 μg peptide (b)/mL solid drug product in ice cold USP grade aqueous 0.9% (w/v) NaCl followed by sterile filtration. Room temperature stability of the reconstituted drug product was ca. 12 hrs.
# [3] = reconstitution of lyophilized (3x) peptide (a)/SBECD formulation
# Experimental: 6 mg/mL peptide (a) was formulated in an aqueous solution containing 30% (w/v) SBECD and 30 mM citric acid adjusted to pH 3.5 with 0.5 M aqueous sodium hydroxide.
# as §1, with “70%” for “approximately 75%”, “0.5” for “0.1”, “6.0” for “2.0”
# The vials containing product were loaded onto the shelves and the temperature set for 5° C. for 2 hrs. […]
# Reconstitution was effected by addition of 9.75 mL of WFI, USP to produce the desired fill volume within the vial of 10.5 mL. […] The pH measured was 3.5±0.1.
smiles,measurement,setting,value
CC(=O)N[C@@H](CCc1ccccc1)C(=O)N[C@@H](CC(C)C)C(=O)N[C@@H](Cc1ccccc1)C(=O)N[C@@H](CC(C)C)C(=O)[C@@]1(C)CO1 [peptide (b)],state of the solution at room temperature,"[1]; 100 μg/mL in aqueous 130 mg/mL HPBCD, ca. 0.9% (w/v) NaCl, could not be made by simply dissolving",supersaturated (metastable)
same,solubility when formulated with a cyclodextrin,[1],significantly enhanced
same,Room temperature stability of the reconstituted drug product,[2],ca. 12 hrs
CC(C)C[C@H](NC(=O)[C@H](CCc1ccccc1)NC(=O)CN1CCOCC1)C(=O)N[C@@H](Cc1ccccc1)C(=O)N[C@@H](CC(C)C)C(=O)[C@@]1(C)CO1 [peptide (a)],solubility when formulated with a cyclodextrin,[1],significantly enhanced
same,time for dissolution on reconstitution,"[3]; lyophilized 6 mg/mL peptide (a), 30% (w/v) SBECD, 30 mM citric acid pH 3.5, 9.75 mL WFI added, fill volume 10.5 mL",less than 2 minutes
same,pH measured after reconstitution,[3]; lyophilized peptide (a)/SBECD/citrate formulation reconstituted with WFI,3.5±0.1
